Measurements taken from PMC12209990, “Effect of Cytochrome P450 3A Inhibition and Induction by Itraconazole and Rifampin on Tazemetostat Pharmacokinetics in Patients With Advanced Malignancies” (Clinical Pharmacology in Drug Development, 2025).

Tests used:
[1] = Safety (TEAEs) Part 1: tazemetostat coadministered with itraconazole; conditions: human, in vivo
Procedure: Part 1 of the study evaluated the DDI between tazemetostat and itraconazole. On the mornings of Days 1 and 15, patients received a single dose of tazemetostat 400 mg orally. On Days 3‐14, patients received tazemetostat 400 mg twice daily (morning and evening). On Days 18‐20, patients received itraconazole 200 mg orally once daily in the morning. On Days 21‐35, tazemetostat 400 mg twice daily was coadministered in the morning with a single dose of itraconazole 200 mg. On Day 36, patients received a single dose of tazemetostat 400 mg coadministered in the morning with a single dose of itraconazole 200 mg. On Days 37 and 38, patients received a single dose of itraconazole 200 mg (Figure 1A). Throughout Part 1, administration of itraconazole occurred 1 hour after a meal.
(§1) Safety was assessed by monitoring treatment‐emergent adverse events (TEAEs) and vital signs, electrocardiography, and clinical laboratory tests. TEAEs were defined as adverse events that started or worsened in severity on or after the date of the first dose of the study drug through 30 days after the last dose. Treatment‐related TEAEs were summarized by each study drug for both study parts. Adverse events were coded using the Medical Dictionary for Regulatory Activities Version 23.1 and graded per Common Terminology Criteria for Adverse Events Version 5.0.

[2] = Safety (TEAEs) Part 2: tazemetostat coadministered with rifampin; conditions: human, in vivo
Procedure: Part 2 of the study evaluated the DDI between tazemetostat and rifampin. On the mornings of Days 1 and 15, patients received a single dose of tazemetostat 800 mg orally. On Days 3‐14, patients received tazemetostat 800 mg twice daily. On Days 17‐23, patients received tazemetostat 800 mg twice daily, coadministered in the morning with a single dose of rifampin 600 mg orally. On the morning of Day 24, patients received a single dose of tazemetostat 800 mg coadministered with rifampin 600 mg. On the morning of Day 25, patients received rifampin 600 mg (Figure 1B). Throughout Part 2, administration of rifampin occurred 1 hour before a meal.
as §1

| Compound | Treatment-related TEAE Grade 3 or 4, related to the named study drug, patients [1] | Treatment-related TEAEs, related to the named study drug, patients [1] | Treatment-related TESAE, related to the named study drug, patients [1] | Treatment-related TEAE Grade 3 or 4, related to the named study drug, patients [2] | Treatment-related TEAEs, related to the named study drug, patients [2] | Treatment-related TESAE, related to the named study drug, patients [2] |
| --- | --- | --- | --- | --- | --- | --- |
| CCC(C)n1ncn(-c2ccc(N3CCN(c4ccc(OCC5COC(Cn6cncn6)(c6ccc(Cl)cc6Cl)O5)cc4)CC3)cc2)c1=O (stereo not drawn) [Itraconazole] | 1 (4.8) n (%) | 8 (38.1) n (%) | 0 n (%) |  |  |  |
| CO[C@H]1/C=C/O[C@@]2(C)Oc3c(C)c(O)c4c(O)c(c(/C=N/N5CCN(C)CC5)c(O)c4c3C2=O)NC(=O)/C(C)=C\C=C\[C@H](C)[C@H](O)[C@@H](C)[C@@H](O)[C@@H](C)[C@H](OC(C)=O)[C@@H]1C [Rifampin] |  |  |  | 1 (4.8) n (%) | 8 (38.1) n (%) | 0 n (%) |
